Test results published in patent publication US20110009376A1, “PROPHYLACTIC OR THERAPEUTIC AGENT FOR EYE DISEASE ACCOMPANIED BY OPTIC NERVE DISORDER” (priority 2008, published 2011).

Experiments:
[1] = test system: GCLM; assay: Induction of gene expression in rat fetus-derived retinal neuron culture system (quantitative PCR); format: cell-based; details: mean ± standard deviation, normalized to GAPDH
Method: (§1) Test 1: Study of Ability to Induce Expression of Genes of Phase II Xenobiotic Metabolizing Enzyme and Antioxidant Enzyme using Rat Fetus-Derived Retinal Neuron Culture System
(§2) The ability of Ebselen to induce the expression of genes of a phase II xenobiotic metabolizing enzyme and an antioxidant enzyme was evaluated using a rat fetus-derived retinal neuron culture system (Brain Res. 2003; 967: 257-66) Incidentally, the rat fetus-derived retinal neuron culture system has been extensively used as a technique for culturing retinal neurons and has been widely used as one of the tools for studying optic nerve diseases such as glaucoma.
(§3) Retinal neurons of a rat fetus (Slc:Wistar/ST, 18 days old) were isolated and seeded onto a polyethyleneimine-coated plastic coverslip. Then, the cells were cultured for 3 days in an Eagle's minimum essential medium supplemented with 10% fetal bovine serum. Thereafter, a solvent (0.1% ethanol) or Ebselen was added thereto to give a final concentration of 25 μM, and the cells were incubated in the culture medium. Incidentally, the culture was performed under the conditions of 37° C. and 5% CO2. The culture medium was removed at each time point of 4, 8, or 12 hours after initiation of incubation. A mixed solution was prepared by adding 1% (v/v) β-mercaptoethanol (manufactured by BioRad, Cat No. 161-0710) to Buffer RLT attached to RNeasy Mini Kit (250) (manufactured by QIAGEN, Cat No. 74106), and the retinal neurons on the plastic coverslip were lysed with the thus prepared mixed solution. The total RNA was extracted from the resulting cell lysate according to the protocol attached to the RNeasy Mini Kit (250), and cDNA was synthesized using ExScript™ RT reagent Kit (manufactured by TAKARA, Cat No. RR035B). According to the protocol attached to SYBR Premix Ex Taq (Perfect Real Time) (manufactured by TAKARA, Cat No. RR041B), SYBR Premix Ex Taq (Perfect Real Time), ROX Reference Dye, the synthesized cDNA, and each primer pair of glyceraldehyde-3-phosphate dehydrogenase (hereinafter also referred to as “GAPDH”), GCLM, TRxR, HO-1, or NQO-1 (manufactured by Nihon Gene Research Laboratories Inc.) were mixed, and PCR reaction was performed using a quantitative PCR system (manufactured by Applied Biosystems, system name: ABI PRISM 7000), and the expression level of each of the genes of GAPDH, GCLM, TRxR, HO-1, and NQO-1 was measured. From the obtained results, a relative expression level of each target gene was calculated by normalizing the expression level of each target gene with the expression level of GAPDH which is a housekeeping gene according to the equation 1. Further, an induction ratio (%) of each target gene to the vehicle group was obtained by dividing the value of the expression level of each gene in the 25 μM Ebselen group by a mean value of the expression level of the same gene in the vehicle group according to the equation 2. Each data was shown as the mean±standard deviation of three independent experiments.
(§4) Relative expression level of each target gene=(Expression level of each gene/Expression level of GAPDH) [Equation 1]
(§5) Induction ratio of each target gene to vehicle group (%)=(Expression level of each gene in 25 μM Ebselen group/Expression level of each gene in vehicle group) [Equation 2]

[2] = test system: HO-1; assay: as above; format: cell-based; details: mean ± standard deviation, normalized to GAPDH
Method: as §1, §2, §3, §4, §5

[3] = test system: NQO-1; assay: as above; format: cell-based; details: mean ± standard deviation, normalized to GAPDH
Method: as §1, §2, §3, §4, §5

[4] = test system: TRxR; assay: as above; format: cell-based; details: mean ± standard deviation, normalized to GAPDH
Method: as §1, §2, §3, §4, §5

[5] = test system: cells in the retinal ganglion cell layer; assay: Rat model of ischemia/reperfusion-induced retinal damage; format: in vivo; details: oral, twice daily for 12 days, eyes taken 7 days after ischemia/reperfusion
Method: The usefulness of Ebselen against retinal ischemia/reperfusion damage was evaluated using a rat model of ischemia/reperfusion-induced retinal damage (Ophthalmologica. 1991; 203: 138-147) as a model for studying an effect on retinal damage induced by ischemia/reperfusion.
A 1% (w/v) atropine sulfate hydrate ophthalmic solution (manufactured by Nihon Tenganyaku, Co. Ltd., product name: Nitten ATROPINE Ophthalmic Solution 1%) was instilled into the eye of a rat (Slc:SD, male, about 7 weeks old) to cause mydriasis, and general anesthesia was induced by allowing the rat to inhale a gas obtained by vaporizing 3% (v/v) halothane (manufactured by Takeda Pharmaceutical Company Limited., product name: Fluothane) by a mixed gas (2 L/min) of 100% (v/v) oxygen (0.5 L/min) and 100% (v/v) nitrous oxide (1.5 L/min), and the anesthesia was maintained under conditions of 1% (v/v) halothane. […] From the 8 sections, 3 sections were arbitrarily selected, and with respect to the selected sections, a photograph of the retina in the range of from 1 to 1.5 mm on the left or right side from the optic nerve head was taken, and the number of cells in the retinal ganglion cell layer was measured. […]

[6] = test system: photoreceptor cells (visual cells); details: ischemia/reperfusion rabbit model; cited from earlier work
[7] = test system: chick retinal cells; details: chick retinal cells in an embryonic stage; cited from earlier work

SMILES: O=c1c2ccccc2[se]n1-c1ccccc1 [Ebselen, 2-phenyl-1,2-benzisoselenazol-3(2H)-one]
- Induction ratio of expression of GCLM gene in 25 μM Ebselen group to vehicle group ([1]; after 4 hours): 198 ± 18%
- Induction ratio of expression of GCLM gene in 25 μM Ebselen group to vehicle group ([1]; after 8 hours): 194 ± 14%
- Induction ratio of expression of GCLM gene in 25 μM Ebselen group to vehicle group ([1]; after 12 hours): 172 ± 13%
- Induction ratio of expression of HO-1 gene in 25 μM Ebselen group to vehicle group ([2]; after 4 hours): 1263 ± 365%
- Induction ratio of expression of HO-1 gene in 25 μM Ebselen group to vehicle group ([2]; after 8 hours): 1458 ± 307%
- Induction ratio of expression of HO-1 gene in 25 μM Ebselen group to vehicle group ([2]; after 12 hours): 1311 ± 237%
- Induction ratio of expression of NQO-1 gene in 25 μM Ebselen group to vehicle group ([3]; after 4 hours): 450 ± 74%
- Induction ratio of expression of NQO-1 gene in 25 μM Ebselen group to vehicle group ([3]; after 8 hours): 937 ± 183%
- Induction ratio of expression of NQO-1 gene in 25 μM Ebselen group to vehicle group ([3]; after 12 hours): 1266 ± 212%
- Induction ratio of expression of TRxR gene in 25 μM Ebselen group to vehicle group ([4]; after 4 hours): 225 ± 11%
- Induction ratio of expression of TRxR gene in 25 μM Ebselen group to vehicle group ([4]; after 8 hours): 193 ± 13%
- Induction ratio of expression of TRxR gene in 25 μM Ebselen group to vehicle group ([4]; after 12 hours): 301 ± 26%
- Suppression ratio against decrease in the number of cells in retinal ganglion cell layer ([5]; 3 mg/kg/day): 38.0%
- Suppression ratio against decrease in the number of cells in retinal ganglion cell layer ([5]; 30 mg/kg/day): 59.7%
- Effect on b-wave of the electroretinogram (ERG) after ischemia/reperfusion [6]: attenuated the reduction of the b-wave
- Effect on cell death caused by glutamate excitotoxicity [7]: inhibited the cell death caused by glutamate excitotoxicity
